This data set in a line: in vivo. As to conditions: male, NMRI nu/nu, mouse, iv, 8 mg/kg.

The source of these data is patent EP2070521A1, “Surface-modified nanoparticles” (Bayer Schering Pharma Aktiengesellschaft, priority 2007, dated 2009).

Structures are written as SMILES.

On to `C=CC[C@H]1C(=O)C(C)(C)[C@@H](O)CC(=O)O[C@H](c2ccc3sc(C)nc3c2)C[C@@H]2O[C@]2(C)CCC[C@H](C)[C@@H]1O` [epothilone, (1S,3S,7S, 10R,11S,12S,16R)-7,11-dihydroxy-10-(prop-2-en-1-yl)-3-(2-methyl-benzothiazol-5-yl)-8,8,12,16-tetramethyl-4,17-dioxabicyclo[14.1.0]heptadecane-5,9-dione], for which the Kp at 1 h turned out to be 16.3, the Kp at 2 h was 29.1 and the Kp at 4 h worked out at 27.7.
